The results in this text go back to patent US20250361230A1, “LATS Inhibitors and Uses Thereof” (The USA, as Represented by the Secretary, Dept. of Heath …, priority 2022, published 2025).

For one assay, the target named is T1, LATS2 (Homo sapiens, UniProt Q9NRM7).
T1 sequence (Q9NRM7 1-1088): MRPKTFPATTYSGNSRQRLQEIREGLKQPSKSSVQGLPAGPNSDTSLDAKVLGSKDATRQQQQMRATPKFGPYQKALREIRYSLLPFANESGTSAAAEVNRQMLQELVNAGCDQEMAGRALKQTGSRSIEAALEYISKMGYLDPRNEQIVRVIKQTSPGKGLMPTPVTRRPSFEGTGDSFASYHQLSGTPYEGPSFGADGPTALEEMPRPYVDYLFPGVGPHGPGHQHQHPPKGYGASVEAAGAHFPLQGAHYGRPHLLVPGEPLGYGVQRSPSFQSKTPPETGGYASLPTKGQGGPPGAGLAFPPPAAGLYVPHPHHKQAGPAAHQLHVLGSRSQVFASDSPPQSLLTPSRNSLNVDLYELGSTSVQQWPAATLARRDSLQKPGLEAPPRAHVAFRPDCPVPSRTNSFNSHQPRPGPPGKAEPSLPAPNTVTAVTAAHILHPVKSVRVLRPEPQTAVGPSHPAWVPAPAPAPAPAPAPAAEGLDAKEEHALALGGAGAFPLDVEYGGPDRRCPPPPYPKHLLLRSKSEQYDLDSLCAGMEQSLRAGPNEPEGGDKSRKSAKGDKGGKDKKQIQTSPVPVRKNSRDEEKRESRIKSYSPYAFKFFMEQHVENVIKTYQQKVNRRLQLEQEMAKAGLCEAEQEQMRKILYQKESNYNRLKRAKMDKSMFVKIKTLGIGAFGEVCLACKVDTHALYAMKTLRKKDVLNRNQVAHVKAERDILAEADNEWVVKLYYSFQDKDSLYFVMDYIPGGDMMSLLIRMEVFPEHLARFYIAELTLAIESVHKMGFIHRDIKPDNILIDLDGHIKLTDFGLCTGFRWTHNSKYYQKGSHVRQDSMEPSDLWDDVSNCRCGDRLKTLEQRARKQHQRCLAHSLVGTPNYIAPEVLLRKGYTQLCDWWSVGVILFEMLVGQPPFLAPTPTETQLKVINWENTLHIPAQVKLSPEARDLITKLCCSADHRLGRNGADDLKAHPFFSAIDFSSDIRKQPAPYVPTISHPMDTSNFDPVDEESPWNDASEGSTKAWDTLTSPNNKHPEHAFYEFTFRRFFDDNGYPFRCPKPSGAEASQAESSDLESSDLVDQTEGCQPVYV
Description: RBC HotSpot kinase assay (33P-ATP, P81 filter-binding), LATS2. Format: biochemical. As to conditions: biochemical kinase inhibition; read-out: LATS2 IC50. The gist of the method: (§1)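 Kinase in Hepes pH 7.5 buffer with Mg2+, EGTA, Brij35, BSA, vanadate, DTT and 1% DMSO, plus required cofactors and substrate, was preincubated 20 min at room temperature with compound. Reaction was started with 33P-ATP and run 2 h, then detected by P81 filter binding. IC50 (nM) came from 10-point singlet curves.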

The target of another assay is T2, LATS1 (Homo sapiens, UniProt O95835).
T2 sequence (O95835 1-1130): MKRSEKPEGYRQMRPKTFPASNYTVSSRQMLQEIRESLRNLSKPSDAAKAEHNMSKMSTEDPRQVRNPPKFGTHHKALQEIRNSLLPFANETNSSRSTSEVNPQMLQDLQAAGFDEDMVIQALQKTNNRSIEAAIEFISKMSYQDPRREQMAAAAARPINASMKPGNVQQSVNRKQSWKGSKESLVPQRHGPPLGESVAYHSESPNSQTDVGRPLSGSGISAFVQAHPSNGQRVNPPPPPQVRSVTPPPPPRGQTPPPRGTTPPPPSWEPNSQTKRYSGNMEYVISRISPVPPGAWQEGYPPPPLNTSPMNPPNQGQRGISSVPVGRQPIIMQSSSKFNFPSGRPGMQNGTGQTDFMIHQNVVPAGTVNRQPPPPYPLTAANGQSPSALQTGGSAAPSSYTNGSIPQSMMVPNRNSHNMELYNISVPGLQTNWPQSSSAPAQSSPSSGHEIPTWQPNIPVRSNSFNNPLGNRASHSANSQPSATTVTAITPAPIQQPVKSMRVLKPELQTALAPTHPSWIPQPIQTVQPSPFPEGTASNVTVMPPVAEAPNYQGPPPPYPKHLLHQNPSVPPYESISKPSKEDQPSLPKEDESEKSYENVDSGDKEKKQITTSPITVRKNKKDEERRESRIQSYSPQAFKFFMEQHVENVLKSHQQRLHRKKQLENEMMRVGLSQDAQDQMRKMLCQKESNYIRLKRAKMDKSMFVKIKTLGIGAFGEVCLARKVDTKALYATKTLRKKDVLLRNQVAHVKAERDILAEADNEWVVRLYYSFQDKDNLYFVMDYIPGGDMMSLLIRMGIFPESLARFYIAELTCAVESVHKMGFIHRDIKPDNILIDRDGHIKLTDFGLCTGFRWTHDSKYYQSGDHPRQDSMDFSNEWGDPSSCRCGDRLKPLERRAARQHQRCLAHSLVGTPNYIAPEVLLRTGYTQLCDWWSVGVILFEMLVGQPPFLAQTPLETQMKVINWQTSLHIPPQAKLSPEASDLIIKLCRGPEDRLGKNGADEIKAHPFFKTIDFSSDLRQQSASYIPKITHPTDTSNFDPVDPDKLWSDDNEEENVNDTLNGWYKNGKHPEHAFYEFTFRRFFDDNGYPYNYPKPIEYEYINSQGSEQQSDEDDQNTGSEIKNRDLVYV
The assay can be described thus: RBC HotSpot kinase assay (33P-ATP, P81 filter-binding), LATS1. Format: biochemical. As to conditions: biochemical kinase inhibition; read-out: LATS1 IC50. The gist of the method:
as §1

In the case of `Cc1cc(-c2ccnc3[nH]cc(C#N)c23)ccc1[C@@]1(O)[C@H](C)CN(C2CCS(=O)(=O)CC2)C[C@@H]1C` [Compound 2003, 4-(4-((3S,4s,5R)-1-(1,1-dioxidotetrahydro-2H-thiopyran-4-yl)-4-hydroxy-3,5-dimethylpiperidin-4-yl)-3-methylphenyl)-1H-pyrrolo[2,3-b]pyridine-3-carbonitrile], the results for the IC50 on LATS2 and on LATS1 were 2.6 nM and 5.6 nM, respectively.
